Values of other authors in the CATMoS acute toxicity set (Mansouri et al. 2021).
“And” between values parts separate entries of the source, which are not always exact repeats. Equal entries are not always repeated.

Assay: rat acute oral toxicity
Settings: in vivo
For `CC(C)CCOC=O`, the LD50 is given as 9840 mg/kg. In the case of `CC(=O)OCCC(C)C`, the LD50 is given as 16600 mg/kg. For `CC(O)C(Cl)(Cl)Cl` (configuration not stated), the LD50 is given as 1000 mg/kg. In the case of `C=COCCOCC1CO1` (configuration not stated), the LD50 is given as 2440 mg/kg. In the case of `CCN[C@H](C)Cc1cccc(C(F)(F)F)c1`, the LD50 is listed as 195 mg/kg. In the case of `CC(=O)c1cccc(Oc2ccccc2)c1`, the LD50 is listed as 4160 mg/kg. In the case of `CC(=O)O[C@H]1C[C@H](O[C@H]2[C@@H](OC=O)C[C@H](O[C@H]3[C@@H](OC=O)C[C@H](O[C@H]4CC[C@@]5(C)[C@H](CC[C@@H]6[C@@H]5CC[C@]5(C)[C@@H](C7=CC(=O)OC7)[C@@H](OC=O)C[C@]65O)C4)O[C@@H]3C)O[C@@H]2C)O[C@H](C)[C@H]1OC=O`, the LD50 is given as 39 mg/kg. In the case of `C[C@H]1OC(O[C@H]2[C@@H](O)CC(O[C@H]3[C@@H](O)CC(O[C@H]4CC[C@@]5(C)[C@H](CC[C@@H]6[C@@H]5CC[C@]5(C)[C@@H](C7=CC(=O)OC7)[C@@H](OC=O)C[C@]65O)C4)O[C@@H]3C)O[C@@H]2C)C[C@H](O)[C@@H]1O` (some centres not stated), the LD50 is given as 30 mg/kg. In the case of `CCSC(=S)N(C)C`, the LD50 is given as 550 mg/kg. In the case of `Clc1ccccc1C(c1ccccc1)(c1ccccc1)n1ccnc1`, the LD50 is given as 708 mg/kg. For `Nc1ccc(O)c(Cc2cc(N)ccc2O)c1`, the LD50 is given as 25 mg/kg. For `NC(=O)OC[C@H](O)[C@@H](O)[C@H](N)C(=O)N[C@@H](C(=O)O)[C@H]1O[C@@H](n2cc(CO)c(=O)[nH]c2=O)[C@H](O)[C@@H]1O`, the LD50 is listed as 14700 mg/kg. For `FC(F)C(F)(F)OCC(Cn1cncn1)c1ccc(Cl)cc1Cl` (configuration not stated), the LD50 is given as 1030 mg/kg. In the case of `OC1(c2ccccc2)c2cc(F)ccc2C2=NCCN21` (configuration not stated), the LD50 is given as 40 mg/kg. For `FC(F)(F)c1nc2c(Br)c(Cl)c(Br)cc2[nH]1`, the LD50 is given as 8.47 mg/kg. For `CN1CCCC(=C(c2cccs2)c2cccs2)C1`, the LD50 is given as 10000 mg/kg. In the case of `CC1COC(C(Cl)CCl)O1` (configuration not stated), the LD50 is given as 620 mg/kg. For `Cc1[nH]c(=O)c(C#N)cc1-c1ccc2nccn2c1`, the LD50 is listed as 7800 mg/kg. For `Cc1cc(C(C#N)c2ccc(Cl)cc2)c(Cl)cc1NC(=O)c1cc(I)cc(I)c1O` (configuration not stated), the LD50 is listed as 262 mg/kg. For `O=C(C=Cc1ccccc1O)OC(=O)C=Cc1ccccc1O`, the LD50 is listed as 1510 mg/kg. In the case of `CN(C)CCCNC1=C2C(=CC=CC2[N+](=O)[O-])N(O)c2ccccc21` (configuration not stated), the LD50 is listed as 110 mg/kg. For `NC1=NCC(c2ccccc2)O1` (configuration not stated), the LD50 is listed as 25 mg/kg. For `CN1c2ccccc2Sc2ccc(CC(=O)O)cc21`, the LD50 is given as 495 mg/kg. In the case of `Cc1cc(-c2ccc(N=Nc3c(S(=O)(=O)O)cc4cc(S(=O)(=O)O)cc(N)c4c3O)c(C)c2)ccc1N=Nc1c(S(=O)(=O)O)cc2cc(S(=O)(=O)O)cc(N)c2c1O`, the LD50 is given as 6200 mg/kg. For `CS(=O)(=O)N(Cc1cccnc1)c1ccc(F)cc1F`, the LD50 is listed as 1060 mg/kg. For `C1C[SiH2]C1`, the LD50 is given as 1540 mg/kg. For `Fc1cc(F)c2nc(C(F)(F)F)[nH]c2c1F`, the LD50 is listed as 2.29 mg/kg. For `CC(CN(C)C)CN1c2ccccc2CCc2ccccc21` (configuration not stated), the LD50 is listed as 800 mg/kg. In the case of `C=CC(=O)NCC(OC)OC`, the LD50 is given as 1200 mg/kg. In the case of `COC(CN1CCN(CCC(O)c2ccccc2)CC1)c1ccccc1` (configuration not stated), the LD50 is listed as 640 mg/kg. For `O=C1c2cccc(S(=O)(=O)O)c2C(=O)c2cccc(S(=O)(=O)O)c21`, the LD50 is listed as 2360 mg/kg. In the case of `O=C1c2ccccc2C(=O)c2c1cccc2S(=O)(=O)O`, the LD50 is given as 20000 mg/kg. In the case of `O=[N+]([O-])c1cc(Cl)c(Cl)c(Cl)c1[N+](=O)[O-]`, the LD50 is listed as 425 mg/kg. In the case of `CCCCCCCCCCOC(=O)C[N+](C)(C)CCSCC[N+](C)(C)CC(=O)OCCCCCCCCCC`, the LD50 is given as 2660 mg/kg. For `CCOC1CCCCC1O` (configuration not stated), the LD50 is given as 804 mg/kg. For `C=CP(=O)(OCCCl)OCCCl`, the LD50 is given as 990 mg/kg. For `CCN1CCCc2ccccc21`, the LD50 is given as 1780 mg/kg. For `C=C(Nc1ccc(NC(=O)COC)cc1)N(C)C`, the LD50 is listed as 4690 mg/kg. For `Cc1ccc(-c2ccccc2)cc1`, the LD50 is given as 2570 mg/kg. In the case of `O=C(O)/C=C/c1ccc(Cn2ccnc2)cc1`, the LD50 is given as 4160 mg/kg. For `CCOC(=O)C=Cc1ccccc1`, the LD50 is given as 4000 mg/kg. For `COc1cccc(CCc2ccccc2OCC(CN(C)C)OC(=O)CCC(=O)O)c1` (configuration not stated), the LD50 is given as 4400 mg/kg. For `CCOP(=S)(OCC)SCN1C(=O)c2ccccc2C1=O`, the LD50 is listed as 43 mg/kg. For `COP(=O)(OC)Sc1ccc([N+](=O)[O-])cc1`, the LD50 is given as 42.9 mg/kg. For `O=C(CI)NC(=O)CI`, the LD50 is listed as 650 mg/kg. In the case of `CN1C(=O)C2C3C=C(C(O)(c4ccccc4)c4ccccn4)C(C3=C(c3ccccc3)c3ccccn3)C2C1=O` (configuration not stated), the LD50 is listed as 12 mg/kg. For `CCCCCCCCCc1ccc(C)cc1O`, the LD50 is given as 4000 mg/kg. For `CCOC(N)=O`, the LD50 is given as 1810 mg/kg. In the case of `CN(CCCO)CCC(c1ccccc1)c1ccccc1`, the LD50 is listed as 1400 mg/kg. For `CCC(C)NC(=S)C(=S)NC(C)CC` (configuration not stated), the LD50 is given as 6 mg/kg. In the case of `Clc1ccc(C(OCCN2CCCCC2)c2ccccc2)cc1` (configuration not stated), the LD50 is listed as 1990 mg/kg. In the case of `N#CCCl`, the LD50 is listed as 220 mg/kg. For `CC(C)NCC(O)COc1cccc2c1OCC(O)C2` (configuration not stated), the LD50 is given as 1840 mg/kg. For `Cc1ccc(C(=O)c2ccc(CC(=O)O)n2C)cc1`, the LD50 is given as 293 mg/kg. In the case of `CC1CC2CN(C)CC(C2O)C1N1CCCC1` (configuration not stated), the LD50 is listed as 500 mg/kg. For `CCOC(C1=NCC(C)(C)CN1)c1ccc(OC)c(F)c1` (configuration not stated), the LD50 is given as 320 mg/kg. For `CCC(=O)O[C@]1(c2ccccc2)CCN(C)C[C@@H]1C`, the LD50 is listed as 90 mg/kg. In the case of `CC=CC#N`, the LD50 is listed as 167 mg/kg and 501 mg/kg. In the case of `OC1(c2ccc(F)cc2)c2ccccc2C2=NCCN21` (configuration not stated), the LD50 is listed as 200 mg/kg. In the case of `COc1ccc(C(=O)Nc2ccccc2CCC2CCCCN2C)cc1` (configuration not stated), the LD50 is given as 57 mg/kg. In the case of `OC[C@@H](O)[C@@H](O[C@@H]1O[C@H](CO)[C@H](O)[C@H](O)[C@H]1O)[C@H](O)[C@@H](O)CO`, the LD50 is listed as 30000 mg/kg and 27500 mg/kg. In the case of `Cc1c(Cl)c(Cl)c2nc(C(F)(F)F)[nH]c2c1Cl`, the LD50 is given as 18.3 mg/kg. For `Nc1ccc(O)c2c1C(=O)c1c(N)c(Br)cc(O)c1C2=O`, the LD50 is listed as 12500 mg/kg. In the case of `Nc1ccc(-c2ccc(N)cc2)cc1`, the LD50 is given as 309 mg/kg. In the case of `CN1CCC(OC(c2ccccc2)c2ccccc2)CC1`, the LD50 is given as 698 mg/kg. For `O=NN1CN2CN(C1)CN(N=O)C2`, the LD50 is listed as 940 mg/kg. In the case of `CC#CCC(C)[C@H](O)/C=C/[C@@H]1[C@H]2c3cccc(CCCC(=O)O)c3O[C@H]2C[C@H]1O` (some centres not stated), the LD50 is given as 12 mg/kg and 11.6 mg/kg.
